Measured values as given in patent publication US20230108408A1, “OXALAMIDE SUBSTITUTED HETEROCYCLIC COMPOUNDS AS MODULATORS OF THE ARYL HYDROCARBON RECEPTOR (AHR)” (PHENEX PHARMACEUTICALS AG, priority 2020, published 2023).

Target: T1, AhR (Homo sapiens, UniProt P35869)
T1 construct: The HepG2 CYP1A1-Luc cells do express basal luciferase activity that can be increased via potent AhR agonists or decreased via potent AhR antagonists; endogenous in cells
T1 sequence (P35869 11-848): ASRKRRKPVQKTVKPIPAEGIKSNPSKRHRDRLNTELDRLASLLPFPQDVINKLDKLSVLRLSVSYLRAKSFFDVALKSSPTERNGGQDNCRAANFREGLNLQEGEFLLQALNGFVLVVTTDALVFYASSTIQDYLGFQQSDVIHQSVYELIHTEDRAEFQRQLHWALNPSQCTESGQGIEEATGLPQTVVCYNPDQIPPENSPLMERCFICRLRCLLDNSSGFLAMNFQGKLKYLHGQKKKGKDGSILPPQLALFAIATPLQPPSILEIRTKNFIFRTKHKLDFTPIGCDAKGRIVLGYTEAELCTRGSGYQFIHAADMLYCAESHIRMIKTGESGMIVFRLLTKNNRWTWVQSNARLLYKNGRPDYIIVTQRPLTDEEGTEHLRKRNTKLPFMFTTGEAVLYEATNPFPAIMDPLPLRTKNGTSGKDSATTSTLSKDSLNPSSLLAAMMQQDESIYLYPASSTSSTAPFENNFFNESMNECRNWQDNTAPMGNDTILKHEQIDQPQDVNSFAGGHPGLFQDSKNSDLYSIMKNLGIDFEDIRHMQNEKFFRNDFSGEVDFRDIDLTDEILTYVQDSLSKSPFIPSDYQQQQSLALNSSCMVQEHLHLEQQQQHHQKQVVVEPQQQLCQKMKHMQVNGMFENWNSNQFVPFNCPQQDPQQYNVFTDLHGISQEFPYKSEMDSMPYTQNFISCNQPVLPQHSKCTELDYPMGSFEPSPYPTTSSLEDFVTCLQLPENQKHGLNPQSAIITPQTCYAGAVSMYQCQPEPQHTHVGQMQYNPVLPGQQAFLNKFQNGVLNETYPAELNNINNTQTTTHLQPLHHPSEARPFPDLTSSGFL
Experiment: AhR Direct Luciferase Reporter Assay in HepG2 Cells
Type: cell-based
Conditions: AhR antagonistic potency; HepG2 CYP1A1-Luc cells, 18 hours, no exogenous AhR agonist or 10 nM VAF347
From the text: AhR Direct Luciferase Reporter Assay in HepG2 Cells.
A stable cell line (HepG2 CYP1A1-LUC) was used in which part of the promoter region of the human CYP1A1 gene is stably integrated into the genome of human HepG2 hepatocytes (DSZM #ACC 180) in front of a Photinus pyralis Firefly Luciferase gene. A 1210 bp fragment comprising part of the human CYP1A1 promoter was isolated via SacI and BgIII restriction digestion from Lightswitch Clone S714555 (SwitchGearGenomics) and inserted between the SacI and BgIII sites in pGL4.30 (Promega #E8481) in front of the Firefly Luciferase gene. The resulting vector was linearized with NotI, transfected into HepG2 cells (DSMZ #ACC 180) and stably transfected clones selected with 250 μg/ml Hygromycin B. After repetitive rounds of subcloning and testing for robustly regulated luciferase activity after AhR agonist stimulation, a stable clonal HepG2 CYP1A1-Luc cell line was selected.
The HepG2 CYP1A1-Luc cells do express basal luciferase activity that can be increased via potent AhR agonists or decreased via potent AhR antagonists, added to the growth medium of the cells.
In typical reporter assays performed with this cell line, cells are grown in 96-well plates and AhR modulators are titrated into the growth medium in serial dilutions in RPMI-1640 Medium (Sigma #R7509) supplemented with 8.6% fetal calf serum (Sigma #F7524) and containing either no exogenous AhR agonist or 10 nM of the potent AhR agonist VAF347 (Calbiochem #182690). Cells are further cultivated for 18 hours and luciferase activities are determined from extracts of cells in buffers containing D-Luciferine and ATP using a LUMIstar Optima microplate Luminometer from BMG Labtech.

SMILES	IC50
N#Cc1ccc(C(F)(F)F)c(-c2cc3ccc(NC(=O)C(=O)NCc4ccccc4)nc3[nH]2)c1 [2/1, N^1-Benzyl-N^2-(2-(5-cyano-2-(trifluoromethyl)phenyl)-1H-pyrrolo[2,3-b]pyridin-6-yl)oxalamide]	0.1 to 1 µM
CC1CCN1C(=O)C(=O)Nc1ccc2cc(-c3cc(C#N)ccc3C(F)(F)F)[nH]c2n1 (stereo not shown) [1/6]	< 0.1 µM
N#Cc1ccc(C(F)(F)F)c(-c2cc3ccc(NC(=O)C(=O)N4CCCC4)nc3[nH]2)c1 [Example 1, N-(2-(5-Cyano-2-(trifluoromethyl)phenyl)-1H-pyrrolo[2,3-b]pyridin-6-yl)-2-oxo-2-(pyrrolidin-1-yl)acetamide]	< 0.1 µM
N#Cc1ccc(C(F)(F)F)c(-c2cc3ccc(NC(=O)C(=O)N4CCOCC4)nc3[nH]2)c1 [1/1]	0.1 to 1 µM
N#Cc1ccc(C(F)(F)F)c(-c2cc3ccc(NC(=O)C(=O)N4CCC5(CC5)C4)nc3[nH]2)c1 [1/5]	< 0.1 µM
CN1CCN(C(=O)C(=O)Nc2ccc3cc(-c4cc(C#N)ccc4C(F)(F)F)[nH]c3n2)CC1 [1/2]	> 1 µM
COCCN(C)C(=O)C(=O)Nc1ccc2cc(-c3cc(C#N)ccc3C(F)(F)F)[nH]c2n1 [1/4]	0.1 to 1 µM
CC1(O)CN(C(=O)C(=O)Nc2ccc3cc(-c4cc(C#N)ccc4C(F)(F)F)[nH]c3n2)C1 [Example 2, N-(2-(5-Cyano-2-(trifluoromethyl)phenyl)-1H-pyrrolo[2,3-b]pyridin-6-yl)-2-(3-hydroxy-3-methylazetidin-1-yl)-2-oxoacetamide]	0.1 to 1 µM
N#Cc1ccc(C(F)(F)F)c(-c2cc3ccc(NC(=O)C(=O)N4CCC4)nc3[nH]2)c1 [1/7]	0.1 to 1 µM
CN(CC(F)(F)F)C(=O)C(=O)Nc1ccc2cc(-c3cc(C#N)ccc3C(F)(F)F)[nH]c2n1 [1/3]	< 0.1 µM
